Data from patent US20220111094A1, “PATHOGEN DECONTAMINATION OF PERSONAL PROTECTIVE EQUIPMENT (PPE), FACE FILTERING R[…] (FFR) AND SINGLE USE MEDICAL DEVICES (SUD)” (priority 2020, published 2022).

What was measured:
Assay type in all cases: cell-based
[1] = test system: HIV-1; assay: SuperFluids CFI decontamination of medical devices (MDV experiments), residual virus by TCID50; conditions: medical device components such as N95 masks
Procedure: Virus was eluted from control (black bars) and treated (white bars) beads by incubating them with 1 ml of growth media for 30 minutes at room temperature. The amount of HIV p24 in the eluate was measured in an ELISA.
The decontamination device prototype can be run in two modes: dynamic and static. In the static mode, virus-coated N95 face masks and other PPEs were placed in the CFI™ chamber and contacted with the SuperFluids™ for a specific amount of time at a specified pressure and temperature. The CFI™ chamber is be then rapidly exhausted into the expansion chamber. In the dynamic mode, SuperFluids™ is continuously flowed over the virus-coated glass beads at a rate of 20 mL/min, and slowly exhausted at the end of the experiment.

[2] = test system: EMC; assay: CFI virus inactivation of EMC in a FBS matrix; conditions: 50° C., 3,000 psig, previous data
Procedure: Since Freon-22 use and production may be adversely impacted by future environmental concerns, we evaluated alternate refrigerants. Per the listing of thermodynamic properties in Table 1, Freon-23 (trifluoromethane) appears to be an excellent CFI™ candidate because: (i) it is non-chlorinated (the chlorine component of chlorofluorocarbons is thought to be responsible for their negative impact on the ozone layer): (ii) it has a low critical temperature of 25.9° C. (allows operation close to critical conditions while minimizing thermal denaturation of heat sensitive materials); and (iii) it has a relatively large dipole moment of 1.6 Debye (a large potential of solubilizing polar lipids and fats). From a comparison of previous data on the CFI™ virus inactivation of EMC in a FBS matrix, Freon-23 appears to be the best alternate to Freon-22. On the average, Freon-23 inactivated ˜3 logs vs. ˜6 logs of EMC at similar conditions of temperature (50° C.) and pressure (3,000 psig).

[3] = test system: murine leukemia virus (MuLV); assay: CFI inactivation of murine leukemia virus at conditions of almost identical density; conditions: 1,000 psig and 10° C., 2,000 psig and 22° C. and 4,000 psig and 40° C.
Procedure: Temperature. In preliminary studies, all experiments were conducted at or around room temperature in order to maximize the […] of the time and temperature control. Under these conditions, most of the CFI experiments were conducted at sub-critical conditions that may not be optimal for virus inactivation. Temperature will have an impact on both the thermodynamic properties of the SuperFluids™, the configurational structure of the virus, and the integrity of the PPEs and SUDs. Temperature with pressure defines the density of SuperFluids™, and their solvation capacities and expansion factors; the former impacts viral kill by a phospholipid solubilization mechanism and the latter by an explosive decompression mechanism. […] CFI™ technology thus favors lower temperatures, which are better for material integrity. Lowering the temperature often requires the lowering of pressure because density is directly (but not linearly) proportional to pressure and inversely proportional to temperature.

O=C=O [Carbon dioxide]
virus inactivation of HIV viruses associated with medical device components [1]: quite effective

FC(F)Cl [Freon-22, chlorodifluoromethane]
logs of EMC inactivated (on the average) [2]: ~6 logs

FC(F)F [Freon-23, trifluoromethane]
logs of EMC inactivated (on the average) [2]: ~3 logs

[N-]=[N+]=O [N20, Nitrous Oxide]
inactivation of MuLV [3]: equally effective
